{"source": "patent US10894788B2", "about": "“Inhibitors of cyclin-dependent kinases” (Kinnate Biopharma Inc., priority 2018, dated 2021)", "origin": "cited, not measured here", "tested_on": "panel of 1,151 cancer cell lines", "details": "in 52% of 1,151 cancer cell lines; cited from earlier work", "note": "pIC50: −log10 of the molar value.", "data": [{"smiles": "CN(C)C/C=C/C(=O)Nc1ccc(C(=O)Nc2cccc(Nc3ncc(Cl)c(-c4c[nH]c5ccccc45)n3)c2)cc1", "note": "[THZ1]", "values": [{"measurement": "pIC50", "result": "> 6.70"}]}]}
